# Data reported in article PMC9519552, “Activation of the human insulin receptor by non-insulin-related peptides” (Nature Communications, 2022).
# Read-outs that look alike come from different tables or passages of the source. Positions of bridges follow the written chain, without caps; N, C: chain ends. Residues, ends and D or L forms follow the SMILES beside them.
# Columns and labels:
# [1] = target: T1, human holoIR-A over-expressed in HEK293 cells (Homo sapiens, UniProt P06213); test: Inhibition of hIR phosphorylation by peptides, co-incubated with BHI at its EC50 (ELISA); format: cell-based; conditions: for hIRA Phosph IC50 Run 1 / hIRA Phosph IC50 Run 2 / hIRA Phosph IC50 Run 3: inhibition of insulin-stimulated phosphorylation; for hIRA Phosph IC50 Run 1: BHI at its EC50, run 1; for hIRA Phosph IC50 Run 2: BHI at its EC50, run 2; for hIRA Phosph IC50 Run 3: BHI at its EC50, run 3; for IC50: read-out: hIRA Phosph IC50 Mean
# T1 construct: expressed in transfected cells; host or cells: HEK293, stably transfected
# Method in brief: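 Phosphorylation ELISA (TMB, A450) after anti-C9 capture of lysates from stably transfected HEK293 cells expressing C-terminally C9-tagged human holoIR-A, serum-starved overnight in 0.1% BSA/DMEM. Percent specific response versus log concentration, from three independent runs on three days.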
# human IR-A (holoIR-A) = target: T2, human IR-A (holoIR-A) (Homo sapiens, UniProt P06213); test: holoIR-A competitive radioligand binding assay (scintillation proximity assay); conditions: for Ki: IM172N22(-) mutant peptide set; for reduction in ki for hIR-A on substitution: relative to control peptide IM172N22 devoid of N-terminal phenylacetylation; for binding of the mutant peptide to hIR-A (in words): alanine substitution in IM172N22(-)
# T2 construct: expressed in transfected cells; host or cells: HEK293 (ATCC #CRL-1573), stably transfected; membrane preparation
# Method in brief: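 Membranes from HEK293 cells stably expressing C9-tagged human IR-A were used in a WGA-bead SPA competition assay in 50 mM Tris-HCl pH 7.5, 150 mM NaCl, 0.1% fatty-acid-free BSA. Ten-point 3-fold dilutions were incubated 10 h at room temperature before scintillation counting. Percent specific inhibition was calculated after nonspecific-binding correction, from three independent runs.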
# [2] = mean of 3 runs, read-out: hIRA Binding Ki Mean
# [3] = run 1, read-out: hIRA Binding Ki Run 1
# [4] = run 2, read-out: hIRA Binding Ki Run 2
# [5] = run 3, read-out: hIRA Binding Ki Run 3
# T2 sequence (P06213 28-1370 isoform P06213-2 limits assumed): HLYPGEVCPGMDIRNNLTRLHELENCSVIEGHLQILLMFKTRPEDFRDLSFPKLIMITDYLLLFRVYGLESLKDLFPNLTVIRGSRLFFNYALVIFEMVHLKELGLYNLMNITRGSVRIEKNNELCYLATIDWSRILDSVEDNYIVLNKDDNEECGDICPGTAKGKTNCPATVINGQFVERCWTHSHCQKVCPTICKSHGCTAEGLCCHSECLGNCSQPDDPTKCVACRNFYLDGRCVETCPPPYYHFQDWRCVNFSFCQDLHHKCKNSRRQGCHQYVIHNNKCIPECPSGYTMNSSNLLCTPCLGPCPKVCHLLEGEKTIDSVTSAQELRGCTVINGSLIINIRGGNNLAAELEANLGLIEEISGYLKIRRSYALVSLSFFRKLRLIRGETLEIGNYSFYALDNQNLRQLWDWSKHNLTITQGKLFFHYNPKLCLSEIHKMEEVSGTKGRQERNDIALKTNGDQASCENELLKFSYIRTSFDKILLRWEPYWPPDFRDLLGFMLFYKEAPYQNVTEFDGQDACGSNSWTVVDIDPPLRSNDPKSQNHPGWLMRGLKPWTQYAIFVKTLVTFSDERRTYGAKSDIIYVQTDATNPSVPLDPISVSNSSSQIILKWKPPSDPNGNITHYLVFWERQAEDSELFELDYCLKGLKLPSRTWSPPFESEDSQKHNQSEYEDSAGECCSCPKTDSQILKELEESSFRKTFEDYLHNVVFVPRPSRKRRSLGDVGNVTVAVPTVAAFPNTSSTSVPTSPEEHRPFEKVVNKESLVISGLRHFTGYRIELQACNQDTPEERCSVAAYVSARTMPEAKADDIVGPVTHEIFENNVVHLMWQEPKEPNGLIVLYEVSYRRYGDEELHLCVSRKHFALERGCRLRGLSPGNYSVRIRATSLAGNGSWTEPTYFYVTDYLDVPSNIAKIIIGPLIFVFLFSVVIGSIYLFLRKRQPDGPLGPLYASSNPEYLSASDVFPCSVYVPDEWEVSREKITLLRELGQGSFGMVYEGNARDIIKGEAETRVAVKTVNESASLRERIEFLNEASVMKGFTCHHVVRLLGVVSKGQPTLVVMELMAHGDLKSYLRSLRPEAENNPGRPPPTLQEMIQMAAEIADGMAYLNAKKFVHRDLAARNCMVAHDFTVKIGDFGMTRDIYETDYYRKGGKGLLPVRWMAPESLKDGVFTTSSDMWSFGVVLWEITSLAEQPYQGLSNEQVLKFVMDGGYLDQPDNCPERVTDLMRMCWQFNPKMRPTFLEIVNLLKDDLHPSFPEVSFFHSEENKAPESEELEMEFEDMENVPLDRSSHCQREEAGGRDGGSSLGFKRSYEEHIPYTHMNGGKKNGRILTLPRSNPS
# T2 sequence (P06213 763-1382 partner limits assumed): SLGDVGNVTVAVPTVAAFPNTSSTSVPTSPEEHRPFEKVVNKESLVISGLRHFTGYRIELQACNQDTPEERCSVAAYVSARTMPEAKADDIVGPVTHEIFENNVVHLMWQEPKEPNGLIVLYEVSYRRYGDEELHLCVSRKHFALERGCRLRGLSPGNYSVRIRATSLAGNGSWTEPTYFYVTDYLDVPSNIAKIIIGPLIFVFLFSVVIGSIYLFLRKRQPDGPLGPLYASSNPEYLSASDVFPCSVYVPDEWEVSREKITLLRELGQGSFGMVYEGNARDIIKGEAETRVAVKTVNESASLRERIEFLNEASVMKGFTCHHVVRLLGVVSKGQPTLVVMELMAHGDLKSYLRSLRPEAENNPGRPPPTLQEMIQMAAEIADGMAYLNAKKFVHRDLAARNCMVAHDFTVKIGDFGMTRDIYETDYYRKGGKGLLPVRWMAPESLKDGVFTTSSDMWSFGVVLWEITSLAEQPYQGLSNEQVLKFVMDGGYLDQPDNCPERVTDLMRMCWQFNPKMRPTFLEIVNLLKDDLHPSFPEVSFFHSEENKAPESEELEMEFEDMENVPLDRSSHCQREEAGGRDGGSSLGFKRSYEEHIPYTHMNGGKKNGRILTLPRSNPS
# T1 sequence (P06213 28-1370 isoform P06213-2 limits assumed): as the sequence (P06213 28-1370 isoform P06213-2 limits assumed) above
# T1 sequence (P06213 763-1382 partner limits assumed): as the sequence (P06213 763-1382 partner limits assumed) above
structure (smiles),measurement,setting,value
CC[C@H](C)[C@H](NC(=O)[C@H](CCC(N)=O)NC(=O)[C@H](C)NC(=O)[C@H](Cc1c[nH]c2ccccc12)NC(=O)[C@H](CCC(=O)O)NC(=O)[C@H](CCC(=O)O)NC(=O)[C@H](CCC(=O)O)NC(=O)[C@H](CC(C)C)NC(=O)[C@H](CO)NC(C)=O)C(=O)N[C@@H](CCC(=O)O)C(=O)N[C@H]1CSSC[C@@H](C(=O)N2CCC[C@H]2C(=O)N2CCC[C@H]2C(=O)N[C@@H](CO)C(=O)N[C@@H](CCC(=O)O)C(=O)N[C@@H](CO)C(N)=O)NC(=O)[C@H](CCC(=O)O)NC(=O)CNC(=O)[C@H](Cc2ccc(O)cc2)NC(=O)[C@H](C(C)C)NC(=O)[C@H](CCC(=O)O)NC1=O [Peptide R16E] (Ac-SLEEEWAQIECEVYGECPPSES-NH2; disulfide 11-17),hIRA Phosph IC50 Run 1,[1],1117 nM
same,hIRA Phosph IC50 Run 2,[1],1161 nM
same,hIRA Phosph IC50 Run 3,[1],1465 nM
same,IC50,[1],1250 nM
same,Ki,human IR-A (holoIR-A); [2],167 nM
same,Ki,human IR-A (holoIR-A); [3],145 nM
same,Ki,human IR-A (holoIR-A); [4],184 nM
same,Ki,human IR-A (holoIR-A); [5],172 nM
CC[C@H](C)[C@H](NC(=O)[C@H](CCC(N)=O)NC(=O)[C@H](C)NC(=O)[C@H](Cc1c[nH]c2ccccc12)NC(=O)[C@H](CCC(=O)O)NC(=O)[C@H](CCC(=O)O)NC(=O)[C@H](CCC(=O)O)NC(=O)[C@H](CC(C)C)NC(=O)[C@H](C)NC(C)=O)C(=O)N[C@@H](CCC(=O)O)C(=O)N[C@H]1CSSC[C@@H](C(=O)N2CCC[C@H]2C(=O)N2CCC[C@H]2C(=O)N[C@@H](CO)C(=O)N[C@@H](CCC(=O)O)C(=O)N[C@@H](CO)C(N)=O)NC(=O)[C@H](CCCNC(=N)N)NC(=O)CNC(=O)[C@H](Cc2ccc(O)cc2)NC(=O)[C@H](C(C)C)NC(=O)[C@H](CCC(=O)O)NC1=O [Peptide S1A] (Ac-ALEEEWAQIECEVYGRCPPSES-NH2; disulfide 11-17),hIRA Phosph IC50 Run 1,[1],119 nM
same,hIRA Phosph IC50 Run 2,[1],127 nM
same,hIRA Phosph IC50 Run 3,[1],121 nM
same,IC50,[1],122 nM
same,Ki,human IR-A (holoIR-A); [2],9.1 nM
same,Ki,human IR-A (holoIR-A); [3],8.71 nM
same,Ki,human IR-A (holoIR-A); [4],8.06 nM
same,Ki,human IR-A (holoIR-A); [5],10.5 nM
same,reduction in ki for hIR-A on substitution,human IR-A (holoIR-A),lower than 5 fold
CC[C@H](C)[C@H](NC(=O)[C@H](CCC(N)=O)NC(=O)[C@H](C)NC(=O)[C@H](Cc1c[nH]c2ccccc12)NC(=O)[C@H](CCC(=O)O)NC(=O)[C@H](CCC(=O)O)NC(=O)[C@H](CCC(=O)O)NC(=O)[C@H](CC(C)C)NC(=O)[C@H](CO)NC(C)=O)C(=O)N[C@@H](CCC(=O)O)C(=O)N[C@H]1CSSC[C@@H](C(=O)N2CCC[C@H]2C(=O)N2CCC[C@H]2C(=O)N[C@@H](C)C(=O)N[C@@H](CCC(=O)O)C(=O)N[C@@H](CO)C(N)=O)NC(=O)[C@H](CCCNC(=N)N)NC(=O)CNC(=O)[C@H](Cc2ccc(O)cc2)NC(=O)[C@H](C(C)C)NC(=O)[C@H](CCC(=O)O)NC1=O [Peptide S20A] (Ac-SLEEEWAQIECEVYGRCPPAES-NH2; disulfide 11-17),hIRA Phosph IC50 Run 1,[1],53 nM
same,hIRA Phosph IC50 Run 2,[1],40 nM
same,hIRA Phosph IC50 Run 3,[1],53 nM
same,IC50,[1],48.5 nM
same,Ki,human IR-A (holoIR-A); [2],5.4 nM
same,Ki,human IR-A (holoIR-A); [3],4.72 nM
same,Ki,human IR-A (holoIR-A); [4],5.70 nM
same,Ki,human IR-A (holoIR-A); [5],5.77 nM
same,reduction in ki for hIR-A on substitution,human IR-A (holoIR-A),lower than 5 fold
CC[C@H](C)[C@H](NC(=O)[C@H](CCC(N)=O)NC(=O)[C@H](C)NC(=O)[C@H](Cc1c[nH]c2ccccc12)NC(=O)[C@H](CCC(=O)O)NC(=O)[C@H](CCC(=O)O)NC(=O)[C@H](CCC(=O)O)NC(=O)[C@H](CC(C)C)NC(=O)[C@H](CO)NC(C)=O)C(=O)N[C@@H](CCC(=O)O)C(=O)N[C@H]1CSSC[C@@H](C(=O)N2CCC[C@H]2C(=O)N2CCC[C@H]2C(=O)N[C@@H](CO)C(=O)N[C@@H](CCC(=O)O)C(=O)N[C@@H](C)C(N)=O)NC(=O)[C@H](CCCNC(=N)N)NC(=O)CNC(=O)[C@H](Cc2ccc(O)cc2)NC(=O)[C@H](C(C)C)NC(=O)[C@H](CCC(=O)O)NC1=O [Peptide S22A] (Ac-SLEEEWAQIECEVYGRCPPSEA-NH2; disulfide 11-17),hIRA Phosph IC50 Run 1,[1],78 nM
same,hIRA Phosph IC50 Run 2,[1],103 nM
same,hIRA Phosph IC50 Run 3,[1],88 nM
same,IC50,[1],89.8 nM
same,Ki,human IR-A (holoIR-A); [2],16.2 nM
same,Ki,human IR-A (holoIR-A); [3],14.6 nM
same,Ki,human IR-A (holoIR-A); [4],16.1 nM
same,Ki,human IR-A (holoIR-A); [5],17.8 nM
same,reduction in ki for hIR-A on substitution,human IR-A (holoIR-A),lower than 5 fold
CC[C@H](C)[C@H](NC(=O)[C@H](CCC(N)=O)NC(=O)[C@H](C)NC(=O)[C@H](Cc1c[nH]c2ccccc12)NC(=O)[C@H](CCC(=O)O)NC(=O)[C@H](CCC(=O)O)NC(=O)[C@H](CCC(=O)O)NC(=O)[C@H](CC(C)C)NC(=O)[C@H](CO)NC(C)=O)C(=O)N[C@@H](CCC(=O)O)C(=O)N[C@H]1CSSC[C@@H](C(=O)N2CCC[C@H]2C(=O)N2CCC[C@H]2C(=O)N[C@@H](CO)C(=O)N[C@@H](CCC(=O)O)C(=O)N[C@@H](CO)C(N)=O)NC(=O)[C@H](CCCNC(=N)N)NC(=O)CNC(=O)[C@H](Cc2ccc(O)cc2)NC(=O)[C@H](C)NC(=O)[C@H](CCC(=O)O)NC1=O [Peptide V13A] (Ac-SLEEEWAQIECEAYGRCPPSES-NH2; disulfide 11-17),hIRA Phosph IC50 Run 1,[1],2321 nM
same,hIRA Phosph IC50 Run 2,[1],2401 nM
same,hIRA Phosph IC50 Run 3,[1],2832 nM
same,IC50,[1],2520 nM
same,Ki,human IR-A (holoIR-A); [2],215 nM
same,Ki,human IR-A (holoIR-A); [3],203 nM
same,Ki,human IR-A (holoIR-A); [4],265 nM
same,Ki,human IR-A (holoIR-A); [5],177 nM
CC[C@H](C)[C@H](NC(=O)[C@H](CCC(N)=O)NC(=O)[C@H](C)NC(=O)[C@H](C)NC(=O)[C@H](CCC(=O)O)NC(=O)[C@H](CCC(=O)O)NC(=O)[C@H](CCC(=O)O)NC(=O)[C@H](CC(C)C)NC(=O)[C@H](CO)NC(C)=O)C(=O)N[C@@H](CCC(=O)O)C(=O)N[C@H]1CSSC[C@@H](C(=O)N2CCC[C@H]2C(=O)N2CCC[C@H]2C(=O)N[C@@H](CO)C(=O)N[C@@H](CCC(=O)O)C(=O)N[C@@H](CO)C(N)=O)NC(=O)[C@H](CCCNC(=N)N)NC(=O)CNC(=O)[C@H](Cc2ccc(O)cc2)NC(=O)[C@H](C(C)C)NC(=O)[C@H](CCC(=O)O)NC1=O [Peptide W6A] (Ac-SLEEEAAQIECEVYGRCPPSES-NH2; disulfide 11-17),hIRA Phosph IC50 Run 1,[1],>10000 nM
same,hIRA Phosph IC50 Run 2,[1],>10000 nM
same,hIRA Phosph IC50 Run 3,[1],>10000 nM
same,IC50,[1],> 10000 nM
same,Ki,human IR-A (holoIR-A); [2],> 4240 nM
same,Ki,human IR-A (holoIR-A); [3],> 1210 nM
same,Ki,human IR-A (holoIR-A); [4],> 4160 nM
same,Ki,human IR-A (holoIR-A); [5],> 4240 nM
same,binding of the mutant peptide to hIR-A (in words),human IR-A (holoIR-A),no detectable binding
CC[C@H](C)[C@H](NC(=O)[C@H](CCC(N)=O)NC(=O)[C@H](C)NC(=O)[C@H](Cc1c[nH]c2ccccc12)NC(=O)[C@H](CCC(=O)O)NC(=O)[C@H](CCC(=O)O)NC(=O)[C@H](CCC(=O)O)NC(=O)[C@H](CC(C)C)NC(=O)[C@H](CO)NC(C)=O)C(=O)N[C@@H](CCC(=O)O)C(=O)N[C@H]1CSSC[C@@H](C(=O)N2CCC[C@H]2C(=O)N2CCC[C@H]2C(=O)N[C@@H](CO)C(=O)N[C@@H](CCC(=O)O)C(=O)N[C@@H](CO)C(N)=O)NC(=O)[C@H](CCCNC(=N)N)NC(=O)CNC(=O)[C@H](C)NC(=O)[C@H](C(C)C)NC(=O)[C@H](CCC(=O)O)NC1=O [Peptide Y14A] (Ac-SLEEEWAQIECEVAGRCPPSES-NH2; disulfide 11-17),hIRA Phosph IC50 Run 1,[1],>10000 nM
same,hIRA Phosph IC50 Run 2,[1],>10000 nM
same,hIRA Phosph IC50 Run 3,[1],>10000 nM
same,IC50,[1],> 10000 nM
same,Ki,human IR-A (holoIR-A); [2],> 4240 nM
same,Ki,human IR-A (holoIR-A); [3],> 1210 nM
same,Ki,human IR-A (holoIR-A); [4],> 4160 nM
same,Ki,human IR-A (holoIR-A); [5],> 4240 nM
same,binding of the mutant peptide to hIR-A (in words),human IR-A (holoIR-A),no detectable binding
